This is an account of results in ChEMBL document CHEMBL6092122, “Nonenzymatic Sequestering of Formaldehyde into the Antibiotic Methylene-Bridged Dimer Phaeochromycin F by Streptomyces sp. OUCMDZ-4982 as a Possible Multipronged Chemical Defense Mechanism” (J Nat Prod, 2024).

Values after ≈ are worked out from the molar mass of the structure shown. Active and inactive are the calls of the source. No cut-off for these calls is given here.

One data set relates to Escherichia coli. Description: Antibacterial activity against Escherichia coli ATCC 11175 incubated for 24 hrs by microdilution method. The format is functional, organism-based. For orientation: Broth dilution looks for growth in wells or tubes with falling amounts of substance.
A further data set deals with Pseudomonas aeruginosa. Put plainly: Antibacterial activity against Pseudomonas aeruginosa ATCC 10145 incubated for 24 hrs by microdilution method. The format is functional, organism-based.
The subject of another data set is Nakaseomyces glabratus. Put plainly: Antifungal activity against Candida glabrata ATCC 2001 incubated for 24 hrs by microdilution method. The format is functional, organism-based.
Another data set has as its system Candida albicans. Put plainly: Antifungal activity against Candida albicans ATCC 10231 incubated for 24 hrs by microdilution method. It counts as functional, organism-based.
Data set [1] relates to Staphylococcus aureus. Description: Antibacterial activity against Staphylococcus aureus ATCC 43300 incubated for 24 hrs by microdilution method. It counts as functional.
Data set [2] deals with Staphylococcus aureus. Put plainly: Antibacterial activity against Staphylococcus aureus ATCC 6538 incubated for 24 hrs by microdilution method. The format is functional.
The subject of data set [3] is Bacillus subtilis. Description: Antibacterial activity against Bacillus subtilis ATCC 6051 incubated for 24 hrs by microdilution method. It counts as functional.
For data set [4], the system named is Bacillus subtilis. Put plainly: Bactericidal activity against Bacillus subtilis ATCC 6051 incubated for 24 hrs by microdilution method. It counts as functional.
Data set [5] concerns Staphylococcus aureus. Put plainly: Induction of drug resistance in Staphylococcus aureus ATCC 6538 assessed as increase in MIC measured after 20 passages incubated for 24 hrs. It counts as functional, organism-based.
Data set [6] in a line: Drug metabolism in Staphylococcus aureus ATCC 6538 assessed as reduction in formaldehyde content incubated for 1 hr by LC-MS analysis. The format is ADME.
Data set [7] concerns Staphylococcus aureus. Put plainly: Bactericidal activity against Staphylococcus aureus ATCC 43300 incubated for 24 hrs by microdilution method. The format is functional.
The test system of data set [8] is Staphylococcus aureus. Put plainly: Bacteriostatic activity against methicillin-resistant Staphylococcus aureus ATCC 43300 assessed as reduction in bacterial colonies at 2 to 8 times MIC measured after 24 hrs by time kill assay. It counts as functional, organism-based.
Data set [9] in a line: Drug metabolism in Staphylococcus aureus ATCC 6538 assessed as reduction in 5-((4-hydroxy-2-oxo-2H-pyran-6-yl)methyl)-2-methyl-4H-chromen-4-one content incubated for 1 hr by LC-MS analysis. The format is ADME.
For data set [10], the system named is Staphylococcus aureus. Put plainly: Bactericidal activity against Staphylococcus aureus ATCC 6538 incubated for 24 hrs by microdilution method. It counts as functional.
Data set [11] relates to Staphylococcus aureus. Put plainly: Antibacterial activity against methicillin-resistant Staphylococcus aureus ATCC 43300 in absence of HCHO by microdilution method. It counts as functional.
For data set [12], the system named is Staphylococcus aureus. Description: Antibacterial activity against Staphylococcus aureus ATCC 6538 in absence of HCHO by microdilution method. It counts as functional.
The subject of data set [13] is Staphylococcus aureus. Description: Antibacterial activity against methicillin-resistant Staphylococcus aureus ATCC 43300 incubated for 24 hrs by microdilution method. It counts as functional.
A short description of data set [14]: Drug metabolism in Staphylococcus aureus ATCC 6538 assessed as phaeochromycinF formation incubated for 1 hr by LC-MS analysis. It counts as ADME.
Data set [15] deals with Staphylococcus aureus. Description: Antibiotic activity against Staphylococcus aureus ATCC 6538 assessed as compound dimer phaeochromycinF mediated reduction in bacterial growth in LB medium measured upto 8 days. The format is functional, organism-based. As to conditions: time <= 8.0 day.
The test system of the next data set is Streptomyces sp. Put plainly: Protection against formaldehyde-induced toxicity in Streptomyces sp. OUCMDZ-4982 cultured in Gauze medium. The format is functional, organism-based.
A short description of data set [16]: Drug metabolism in Bacillus subtilis ATCC 6051 assessed as phaeochromycinF formation incubated for 1 hr by LC-MS analysis. The format is ADME.
Data set [17] relates to Bacillus subtilis. Description: Antibiotic activity against Bacillus subtilis ATCC 6051 assessed as compound dimer phaeochromycinF mediated reduction in bacterial growth in LB medium measured upto 8 days. The format is functional, organism-based. As to conditions: time <= 8.0 day.
Data set [18] can be described thus: Chemical reactivity of compound in formaldehyde assessed as (1S,2R,18R,19R,22S,25R,28R,40S)-48-[(2S,3R,4S,5S,6R)-3-[(2S,4S,5S,6S)-4-amino-5-hydroxy-4,6-dimethyl-tetrahydropyran-2-yl]oxy-4,5-dihydroxy-6-(hydroxymethyl)tetrahydropyran-2-yl]oxy-22-(2-amino-2-oxo-ethyl)-5,15-dichloro-2,18,32,35,37-pentahydroxy-19-[(4R)-4-isobutyl-3-methyl-5-oxo-imidazolidin-1-yl]-20,23,26,42,44-pentaoxo-7,13-dioxa-21, …. The format is physicochemical.

A short description of data set [19]: Chemical reactivity of compound in formaldehyde assessed as (4R,4aR,5aS,12aR)-9-(3-(tert-butyl)-5-oxoimidazolidin-1-yl)-4,7-bis(dimethylamino)-3,10,12,12a-tetrahydroxy-1,11-dioxo-1,4,4a,5,5a,6,11,12a-octahydrotetracene-2-carboxamide formation. The format is physicochemical.
Data set [20] in a line: Chemical reactivity of compound in acetaldehyde assessed as (1S,2R,18R,19R,22S,25R,28R,40S)-48-[(2S,3R,4S,5S,6R)-3-[(2S,4S,5S,6S)-4-amino-5-hydroxy-4,6-dimethyl-tetrahydropyran-2-yl]oxy-4,5-dihydroxy-6-(hydroxymethyl)tetrahydropyran-2-yl]oxy-22-(2-amino-2-oxo-ethyl)-5,15-dichloro-2,18,32,35,37-pentahydroxy-19-[(2R,4R)-4-isobutyl-2,3-dimethyl-5-oxo-imidazolidin-1-yl]-20,23,26,42,44-pentaoxo-7,13-di …. The format is physicochemical.

In the case of `CCOC(=O)C[C@@H]1Oc2cc(C)oc(=O)c2[C@@H]1c1c(O)cc(C)oc1=O`, the outcome in the data set with Escherichia coli, in the data set with Pseudomonas aeruginosa, with Nakaseomyces glabratus and in the data set with Candida albicans was inactive.
For the compound `Cc1cc(=O)c2c(Cc3cc(O)c(Cc4c(O)cc(Cc5cccc6c5C(=O)CC(C)(O)O6)oc4=O)c(=O)o3)cccc2o1` (stereo not given), the result in the data set on Escherichia coli, in the data set on Pseudomonas aeruginosa, in the data set with Nakaseomyces glabratus and in the data set with Candida albicans was inactive.
Take `Cc1cc(=O)c2c(Cc3cc(O)c(Cc4c(O)cc(CC5(O)CC(=O)c6c(C)cc(O)cc6O5)oc4=O)c(=O)o3)cccc2o1` (stereo not given): the outcome in the data set on Escherichia coli, with Pseudomonas aeruginosa, in the data set on Nakaseomyces glabratus and in the data set with Candida albicans was inactive.
In the case of `Cc1cc(=O)c2c(Cc3cc(O)c(Cc4c(O)cc(Cc5cccc6oc(C)cc(=O)c56)oc4=O)c(=O)o3)cccc2o1`, the MIC in the data set with Staphylococcus aureus [1] amounted to 2 µg/mL (≈ 3.45 µM); in the data set on Staphylococcus aureus [2] it was 1 µg/mL (≈ 1.72 µM); in the data set with Bacillus subtilis [3] it was 0.5 µg/mL (≈ 0.861 µM). Further, the figures for the MBC against Bacillus subtilis [4], with Staphylococcus aureus [7] and in the data set on Staphylococcus aureus [10] were 1 µg/mL (≈ 1.72 µM), 8 µg/mL (≈ 13.8 µM) and 4 µg/mL (≈ 6.89 µM), respectively. Besides, the outcome in the data set with Staphylococcus aureus [5], with Escherichia coli, in the data set with Pseudomonas aeruginosa, with Nakaseomyces glabratus and in the data set with Candida albicans was inactive. Moreover, the Drug metabolism entry in [6] and in data set [9] was “metabolite_notdetected” throughout. Moreover, in the data set with Staphylococcus aureus [8], the outcome was Active.
`CC(C)C[C@@H]1C(=O)N([C@H]2C(=O)N[C@@H](CC(N)=O)C(=O)N[C@H]3C(=O)N[C@H]4C(=O)N[C@H](C(=O)N[C@H](C(=O)O)c5cc(O)cc(O)c5-c5cc4ccc5O)[C@H](O)c4ccc(c(Cl)c4)Oc4cc3cc(c4O[C@@H]3O[C@H](CO)[C@@H](O)[C@H](O)[C@H]3O[C@H]3C[C@](C)(N)[C@H](O)[C@H](C)O3)Oc3ccc(cc3Cl)[C@H]2O)[C@H](C)N1C`: the figures for the MIC in the data set on Staphylococcus aureus [11] and in the data set on Staphylococcus aureus [12] were 32 µg/mL (≈ 21.7 µM) and 64 µg/mL (≈ 43.4 µM), respectively.
For the compound `CC(C)C[C@@H]1C(=O)N([C@H]2C(=O)N[C@@H](CC(N)=O)C(=O)N[C@H]3C(=O)N[C@H]4C(=O)N[C@H](C(=O)N[C@H](C(=O)O)c5cc(O)cc(O)c5-c5cc4ccc5O)[C@H](O)c4ccc(c(Cl)c4)Oc4cc3cc(c4O[C@@H]3O[C@H](CO)[C@@H](O)[C@H](O)[C@H]3O[C@H]3C[C@](C)(N)[C@H](O)[C@H](C)O3)Oc3ccc(cc3Cl)[C@H]2O)CN1C`, the MIC against Staphylococcus aureus [11] and in the data set with Staphylococcus aureus [12] was 64 µg/mL (≈ 43.8 µM) throughout.
Turning to `O=C(O)c1cn(C2CC2)c2cc(N3CCNCC3)c(F)cc2c1=O` [CIPROFLOXACIN], the minimal inhibitory concentration (MIC) came out at 1 µg/mL (≈ 3.02 µM) in the data set on Staphylococcus aureus [1], 0.5 µg/mL (≈ 1.51 µM) in the data set on Staphylococcus aureus [2] and 0.13 µg/mL (≈ 0.392 µM) against Bacillus subtilis [3]. Further, the minimum bactericidal concentration (MBC) came out at 0.13 µg/mL (≈ 0.392 µM) against Bacillus subtilis [4] and 4 µg/mL (≈ 12.1 µM) against Staphylococcus aureus [7].
Turning to `CC(=O)CC(c1c(O)cc(Cc2cccc3oc(C)cc(=O)c23)oc1=O)c1c(O)cc(Cc2cccc3oc(C)cc(=O)c23)oc1=O`, the result in the data set on Escherichia coli, with Pseudomonas aeruginosa, in the data set with Nakaseomyces glabratus and in the data set with Candida albicans was inactive.
Consider `CN(C)c1cc(N2CN(C(C)(C)C)CC2=O)c(O)c2c1C[C@H]1C[C@H]3[C@H](N(C)C)C(O)=C(C(N)=O)C(=O)[C@@]3(O)C(O)=C1C2=O` (single isomer, unassigned), for which the MIC against Staphylococcus aureus [1] worked out at 1 µg/mL (≈ 1.67 µM); in the data set with Staphylococcus aureus [13], 32 µg/mL (≈ 53.5 µM).
Take `Cc1cc(=O)c2c(Cc3cc(O)c([C@H]4c5c(cc(Cc6cccc7oc(C)cc(=O)c67)oc5=O)O[C@H]4CC(=O)O)c(=O)o3)cccc2o1`: the outcome in the data set with Escherichia coli, with Pseudomonas aeruginosa, in the data set on Nakaseomyces glabratus and in the data set with Candida albicans was inactive.
On to `CCOC(=O)CC=C(c1c(O)cc(C)oc1=O)c1c(O)cc(C)oc1=O`, for which the result with Escherichia coli, in the data set on Pseudomonas aeruginosa, in the data set on Nakaseomyces glabratus and with Candida albicans was inactive.
As for `Cc1cc(=O)c2c(Cc3cc(O)c(C(c4ccccc4)c4c(O)cc(Cc5cccc6oc(C)cc(=O)c56)oc4=O)c(=O)o3)cccc2o1`, the outcome in the data set on Escherichia coli, with Pseudomonas aeruginosa, with Nakaseomyces glabratus and with Candida albicans was inactive.
As for `CC1(O)CC(=O)c2c(Cc3cc(O)c(Cc4c(O)cc(Cc5cccc6c5C(=O)CC(C)(O)O6)oc4=O)c(=O)o3)cccc2O1` (stereo not given), the outcome in the data set on Escherichia coli, in the data set with Pseudomonas aeruginosa, with Nakaseomyces glabratus and with Candida albicans was inactive.
`Cc1cc(=O)c2c(Cc3cc(O)cc(=O)o3)cccc2o1`: the Drug metabolism entry in [14] and in data set [16] was “metabolite_detected” each time. Also, the outcome in the data set on Staphylococcus aureus [15] and with Streptomyces sp. was Active. Besides, the result with Bacillus subtilis [17], with Escherichia coli, with Pseudomonas aeruginosa, in the data set with Nakaseomyces glabratus and in the data set with Candida albicans was inactive.
As to `CCOC(=O)/C=C/C(c1c(O)cc(C)oc1=O)c1c(O)cc(C)oc1=O`, the outcome in the data set on Escherichia coli, in the data set with Pseudomonas aeruginosa, in the data set on Nakaseomyces glabratus and in the data set with Candida albicans was inactive.
For the compound `Cc1cc(=O)c2c(Cc3cc(O)c(Cc4c(O)cc(Cc5cc(O)cc6c5C(=O)CC(C)(O)O6)oc4=O)c(=O)o3)cccc2o1` (stereo not given), the outcome with Escherichia coli, in the data set with Pseudomonas aeruginosa, in the data set with Nakaseomyces glabratus and in the data set with Candida albicans was inactive.
For the compound `Cc1cc(=O)c2c(Cc3cc(O)c(Cc4c(O)cc(Cc5cc(=O)c6c(C)cc(O)cc6o5)oc4=O)c(=O)o3)cccc2o1`, the result with Escherichia coli, in the data set on Pseudomonas aeruginosa, in the data set with Nakaseomyces glabratus and in the data set on Candida albicans was inactive.
Turning to `CN(C)c1cc(NC(=O)CNC(C)(C)C)c(O)c2c1C[C@H]1C[C@H]3[C@H](N(C)C)C(O)=C(C(N)=O)C(=O)[C@@]3(O)C(O)=C1C2=O` [TIGECYCLINE], the minimum inhibitory concentration (MIC) against Staphylococcus aureus [1] and with Staphylococcus aureus [13] was 0.5 µg/mL (≈ 0.854 µM) each time. Further, the result in [18], in data set [19] and in data set [20] was Active.
In the case of `Cc1cc(=O)c2c(Cc3cc(O)c(Cc4c(O)cc(Cc5cccc(O)c5)oc4=O)c(=O)o3)cccc2o1`, the outcome with Escherichia coli, in the data set with Pseudomonas aeruginosa, with Nakaseomyces glabratus and in the data set on Candida albicans was inactive.
Turning to `Cc1cc(=O)c2c(Cc3cc(O)c(C(C)c4c(O)cc(Cc5cccc6oc(C)cc(=O)c56)oc4=O)c(=O)o3)cccc2o1`, the outcome in the data set on Escherichia coli, with Pseudomonas aeruginosa, with Nakaseomyces glabratus and in the data set with Candida albicans was inactive.
Regarding `CC(=O)c1c(O)cccc1Cc1cc(O)c(Cc2c(O)cc(Cc3cccc4oc(C)cc(=O)c34)oc2=O)c(=O)o1`, the result with Escherichia coli, in the data set on Pseudomonas aeruginosa, in the data set on Nakaseomyces glabratus and with Candida albicans was inactive.

As a reminder, the MIC is the least concentration at which growth counts as inhibited. Usually MBC stands for the lowest tested concentration that kills the bacteria rather than only halting them. High values mean weaker bactericidal potency, low ones greater bactericidal potency.
